Laboratory results: ChEMBL document CHEMBL1212717, “A new screening assay for allosteric inhibitors of cSrc” (Nat Chem Biol, 2009)

Assays:
[1] = biological target: T1, Mitogen-activated protein kinase 14 (Homo sapiens, UniProt Q16539)
[2] = biological target: T2, Proto-oncogene tyrosine-protein kinase Src (Homo sapiens, UniProt P12931)
[3] = biological target: T2, Proto-oncogene tyrosine-protein kinase Src; settings: 2 uM
[4] = biological target: T1, Mitogen-activated protein kinase 14; settings: 2 uM

T2 sequence (P12931 2-536 limits assumed): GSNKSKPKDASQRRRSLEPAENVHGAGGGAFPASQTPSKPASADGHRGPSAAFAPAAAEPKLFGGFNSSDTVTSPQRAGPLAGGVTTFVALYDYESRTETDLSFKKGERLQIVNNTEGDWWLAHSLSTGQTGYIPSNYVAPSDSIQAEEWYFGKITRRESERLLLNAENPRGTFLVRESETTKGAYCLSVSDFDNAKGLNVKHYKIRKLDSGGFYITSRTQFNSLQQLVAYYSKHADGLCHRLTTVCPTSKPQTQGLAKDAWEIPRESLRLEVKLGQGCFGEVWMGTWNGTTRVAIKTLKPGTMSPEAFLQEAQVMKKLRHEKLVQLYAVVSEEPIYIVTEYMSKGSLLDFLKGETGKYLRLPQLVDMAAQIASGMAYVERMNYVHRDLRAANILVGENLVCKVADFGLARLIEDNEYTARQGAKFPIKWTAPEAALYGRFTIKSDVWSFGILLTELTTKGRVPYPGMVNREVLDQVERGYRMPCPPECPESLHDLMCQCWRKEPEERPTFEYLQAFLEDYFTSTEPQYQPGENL
T1 sequence (Q16539 whole entry): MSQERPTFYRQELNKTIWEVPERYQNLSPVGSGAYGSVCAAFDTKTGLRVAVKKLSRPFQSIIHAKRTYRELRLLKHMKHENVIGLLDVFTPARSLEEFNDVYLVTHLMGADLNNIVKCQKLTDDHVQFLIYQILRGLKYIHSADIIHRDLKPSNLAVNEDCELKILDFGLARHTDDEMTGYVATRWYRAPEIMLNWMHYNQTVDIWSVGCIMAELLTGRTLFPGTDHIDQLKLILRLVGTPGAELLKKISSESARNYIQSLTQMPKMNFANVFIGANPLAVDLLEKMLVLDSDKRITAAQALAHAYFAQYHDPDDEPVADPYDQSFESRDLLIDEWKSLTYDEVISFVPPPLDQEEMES

| Kd [1] | IC50 [2] | T1/2 [3] | T1/2 [4] | SMILES |
| --- | --- | --- | --- | --- |
| Not Active | Not Active | – | – | CC(C)(C)c1cc(NC(=O)Nc2ccc(Cl)cc2)n(-c2c(Cl)cc(C(F)(F)F)cc2Cl)n1 |
| – | – | 5.35 s | 43.6 s | CC(C)(C)c1cc(NC(=O)Nc2ccc(Cl)cc2)n(-c2cccc(N)c2)n1 |
